Experimental data from the supplement of paper PMC8967900.

Legend:
Test in all cases: selective drug sensitivity score (sDSS, relative to normal bone marrow) (sDSS (score)); higher = more potent and effective on the cell line relative to normal bone marrow cells
Settings in all cases: 72 h
COG-LL-317 = test system: COG-LL-317
KARPAS-45 = test system: KARPAS-45
P12-ICHIKAWA = test system: P12-ICHIKAWA
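Further: ALL cell lines in 384-well plates, five doses spanning 10,000-fold, each plate scaled between vehicle and 100 µmol/L benzalkonium chloride controls, sDSS an adapted area-under-curve metric.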

Structure (SMILES)	selective drug sensitivity score (COG-LL-317)	selective drug sensitivity score (KARPAS-45)	selective drug sensitivity score (P12-ICHIKAWA)
CC(C)[C@H]1C(=O)N[C@@H](CCCNC(=N)N)C(=O)NCC(=O)N[C@@H](CC(=O)O)C(=O)N[C@H](Cc2ccccc2)C(=O)N1C [Cilengitide] (top concentration 10000 nM)	0	0	0
NC(=O)/C(=C/n1cnc(-c2cc(C(F)(F)F)cc(C(F)(F)F)c2)n1)c1cncnc1 [Eltanexor] (top concentration 10000 nM)	14.7	8.96	7.96
Cn1cc(-c2[nH]c3cc(NC(=O)[C@H](N)C4CCCCC4)cc4c3c2C=NNC4=O)cn1 (top concentration 10000 nM)	6.08	6.78	7.38
CNc1ncc2cc(-c3cc(NC(=O)NCCC(C)(C)C)c(F)cc3C)c(C)nc2n1 (top concentration 10000 nM)	-0.24	5.26	11
CC(C)Nc1cc(-c2c[nH]c(C(=O)N[C@H](CO)c3cccc(Cl)c3)c2)c(Cl)cn1 [Ulixertinib] (top concentration 10000 nM)	-4.38	-0.18	1.22
CCN(CCO)CCCOc1ccc2c(Nc3cc(CC(=O)Nc4cccc(F)c4)[nH]n3)ncnc2c1 [AZD1152-HQPA] (top concentration 1000 nM)	19.8	24.7	19
CN[C@@H]1C[C@H]2O[C@@](C)([C@@H]1OC)n1c3ccccc3c3c4c(c5c6ccccc6n2c5c31)C(=O)N[C@H]4O [UCN-01] (top concentration 10000 nM)	11.8	6.74	5.94
CN(C(=O)c1ccc(F)cc1C(F)(F)F)C1CCN(c2nnc(-c3ccnn3C)c3ccccc23)CC1 [Taladegib] (top concentration 10000 nM)	-1.12	-0.92	-0.22
O=C(O)c1ccc2c(c1)nc(Nc1cccc(Cl)c1)c1ccncc12 [Silmitasertib] (top concentration 10000 nM)	4	4.1	0.6
NC1(C(=O)N[C@@H](CCO)c2ccc(Cl)cc2)CCN(c2ncnc3[nH]ccc23)CC1 [AZD-5363] (top concentration 10000 nM)	8.82	5.82	3.52
FC(F)(F)c1ccc(CNc2ccc(Cc3c[nH]c4ncc(Cl)cc34)cn2)cn1 [Pexidartinib] (top concentration 10000 nM)	-0.52	-0.02	0.18
COc1c(C)cnc(Cn2cnc3c(Cl)nc(N)nc32)c1C [BIIB021] (top concentration 10000 nM)	10.2	8.88	2.28
CC(C)(C)c1cc(NC(=O)Nc2ccc(Oc3ccnc4[nH]c(=O)cnc34)cc2F)n(-c2ccccc2)n1 (top concentration 25000 nM)	-2.18	-1.48	-4.58
CCn1c(-c2nonc2N)nc2c(C#CC(C)(C)O)ncc(OC[C@H]3CCCNC3)c21 (top concentration 10000 nM)	14.8	6.28	4.68
COc1cc(Nc2ncc(F)c(Nc3ccc4c(n3)NC(=O)C(C)(C)O4)n2)cc(OC)c1OC [Tamatinib] (top concentration 10000 nM)	-5.42	-2.92	-5.02
CN[C@@H](C)C(=O)N[C@H](C(=O)N1CCC[C@H]1c1nc(C(=O)c2ccc(F)cc2)cs1)C1CCCCC1 [NVP-LCL161] (top concentration 25000 nM)	-2.02	-1.82	-4.32
Cn1cc(-c2ccc(F)c(C(F)(F)F)c2)nc1C1CCN(c2ncnc3[nH]ncc23)CC1 (top concentration 10000 nM)	1.76	0.06	-0.14
Nc1ncnc2c1c(-c1cccc(OCc3ccccc3)c1)cn2[C@H]1C[C@@H](CN2CCC2)C1 [NVP-AEW541] (top concentration 10000 nM)	-2.32	-0.92	-2.72
COC(=O)N[C@@H](C)CNc1nccc(-c2cn(C(C)C)nc2-c2cc(Cl)cc(NS(C)(=O)=O)c2F)n1 [Encorafenib] (top concentration 1000 nM)	0	2.6	1.7
Nc1cc(C(F)(F)F)c(-c2cc(N3CCOCC3)nc(N3CCOCC3)n2)cn1 [Buparlisib] (top concentration 10000 nM)	1.08	5.28	3.28
C[C@H]1O[C@@H](O[C@H]2[C@@H](O)C[C@H](O[C@H]3[C@@H](O)C[C@H](O[C@H]4CC[C@@]5(C)[C@H](CC[C@@H]6[C@@H]5C[C@@H](O)[C@]5(C)[C@@H](C7=CC(=O)OC7)CC[C@]65O)C4)O[C@@H]3C)O[C@@H]2C)C[C@H](O)[C@@H]1O [Digoxin] (top concentration 1000 nM)	8.7	12.3	8.2

Structure (SMILES)	selective drug sensitivity score (COG-LL-317)	selective drug sensitivity score (KARPAS-45)	selective drug sensitivity score (P12-ICHIKAWA)
COc1ccc(COc2cc3oc(=O)c4cc(C(C)O)ccc4c3cc2OC)cc1 (stereo not drawn) [Palomid-529] (top concentration 10000 nM)	0.06	2.76	-0.14
O=C(Nc1nc2cccc(-c3ccc(CN4CCS(=O)(=O)CC4)cc3)n2n1)C1CC1 [Filgotinib] (top concentration 10000 nM)	1.16	-1.04	-1.64
CNC(=O)c1cccc(-c2ccc3c(N4CCOC[C@@H]4C)nc(N4CCOC[C@@H]4C)nc3n2)c1 [Vistusertib] (top concentration 10000 nM)	2.12	5.02	3.72
Cc1c(-c2c(-c3ccc(F)o3)sc3ncnc(O[C@H](Cc4ccccc4OCc4ccnn4CC(F)(F)F)C(=O)O)c23)ccc(OCCN2CCN(C)CC2)c1Cl (top concentration 1000 nM)	-2.84	-0.24	-5.84
CN(C)C1CCN(C(=O)c2ccc(NC(=O)Nc3ccc(-c4nc(N5CCOCC5)nc(N5CCOCC5)n4)cc3)cc2)CC1 [Gedatolisib] (top concentration 1000 nM)	5.06	3.76	3.16
CO[C@@H]1[C@H](N(C)C(=O)c2ccccc2)C[C@H]2O[C@]1(C)n1c3ccccc3c3c4c(c5c6ccccc6n2c5c31)C(=O)NC4 [Midostaurin] (top concentration 10000 nM)	8.96	4.06	9.76
CN1CCC(CNc2ccc3ncc(-c4cccc(OC(F)(F)F)c4)n3n2)CC1 [SGI-1776] (top concentration 10000 nM)	0.02	-2.08	-2.98
CC(C)Oc1ccc(-c2nn([C@@H](C)c3oc4ccc(F)cc4c(=O)c3-c3cccc(F)c3)c3ncnc(N)c23)cc1F [TGR-1202] (top concentration 2500 nM)	-2.56	-2.36	-2.56
COc1cccc2c1C(=O)c1c(O)c3c(c(O)c1C2=O)C[C@@](O)(/C(CO)=N/NC(=O)CCCCCN1C(=O)C=CC1=O)C[C@@H]3O[C@H]1C[C@H](N)[C@H](O)[C@H](C)O1 [Aldoxorubicin] (top concentration 1000 nM)	14.8	0.94	5.04
C[C@H](Nc1ncnc2nc[nH]c12)c1cc2cccc(Cl)c2c(=O)n1-c1ccccc1 [Duvelisib] (top concentration 500 nM)	1.96	-0.44	-0.44
C#Cc1cccc(Nc2ncnc3cc(OCCOC)c(OCCOC)cc23)c1 [Erlotinib] (top concentration 10000 nM)	0.16	2.86	1.56
CCS(=O)(=O)N1CCN(c2ccc(Nc3ncc(C(N)=O)c(NC4CC4)n3)cc2)CC1 [Cerdulatinib] (top concentration 10000 nM)	-7.66	-2.36	-4.46
Nc1cc(F)ccc1NC(=O)c1ccc(CNC(=O)/C=C/c2cccnc2)cc1 [Tucidinostat] (top concentration 10000 nM)	2.74	8.74	4.04
COc1cc(Nc2ncc3c(n2)-c2ccc(Cl)cc2C(c2c(F)cccc2OC)=NC3)ccc1C(=O)O [Alisertib] (top concentration 10000 nM)	29.6	27.9	22.6
CC(=O)c1cc2c(o1)C(=O)c1ccccc1C2=O [Napabucasin] (top concentration 20000 nM)	-0.18	1.22	-1.28
Cn1cnc2c(F)c(Nc3ccc(Br)cc3Cl)c(C(=O)NOCCO)cc21 [Selumetinib] (top concentration 10000 nM)	-3.5	-3.8	0.3
Cc1ncc(Cl)cc1NCc1ccc(C(=O)N[C@@H](CC2CCCC2)C(=O)NC2CC2)s1 (top concentration 5000 nM)	18.9	-0.94	-0.94
Cc1nc(Nc2n[nH]c3c2CN(C(=O)N[C@H](CN(C)C)c2ccccc2)C3(C)C)c2sccc2n1 (top concentration 10000 nM)	18.6	9.48	3.68
COC12C(COC(N)=O)C3=C(C(=O)C(C)=C(N)C3=O)N1CC1NC12 (stereo in doubt) [Mitomycin_C] (top concentration 10000 nM)	-2.66	-2.86	-2.86
CC(C)(C)c1nc(-c2cccc(NS(=O)(=O)c3c(F)cccc3F)c2F)c(-c2ccnc(N)n2)s1 [Dabrafenib] (top concentration 2500 nM)	0.18	2.18	1.18
